Read-outs that look alike come from different tables or passages of the source.
Experiments:
[1] = molecular target: EGFR tyrosine kinases (Homo sapiens, UniProt P00533); assay: Inhibitory effect on EGFR tyrosine kinases (ELISA, Poly(Glu,Tyr) 4:1); type: biochemical; settings: result in words
Method: The plate coated with EGFR tyrosine kinases reaction substrate Poly(Glu, Tyr) 4:1 was washed three times with T-PBS and dried in oven at the temperature of 37° C. Every well was added with the ATP solution diluted with reaction buffer, the compound to be tested with grading concentrations and the tyrosine kinases to be tested in sequence to initiate the reaction. The plate was incubated in a shaker for 1 hour at the temperature of 37° C., and then was washed three times with T-PBS (the phosphate buffer containing 0.05% of Tween with a pH of 7.4). Antibody PY99 was added and the reaction was kept on at 37° C. for 1 hour. The plate was washed three times with T-PBS, HRP labeled goat anti mouse IgG was then added and incubated at 37° C. for 1 hour. The colorimetric solution of OPD (o-phenylenediamine) was added and the mixture was reacted in dark at room temperature for 1-10 min. The reaction was terminated by the addition of 2M of H2SO4. The OD value at wavelength of 492 nm was measured using the VersaMax™ microplate reader (MDC company, USA). The inhibitory effect of the samples on EGFR tyrosine kinases was determined by the following formula: Inhibition %=[1−(OD Value of the compound to be tested −OD Value of the control without enzyme)/(OD Value of the negative control−OD Value of the control without enzyme)]×100%.

[2] = SD rats, gavage 4 weeks, 20, 50, 100, 500 and 800 mg/(kg·day)
Method: Five test groups with the dose of 20, 50, 100, 500 and 800 mg/(kg·day) respectively and a solvent control group were set.

[3] = Drug absorption in SD rat, intragastric administration (ig); type: in vivo
Method: (§1) The blood samples were collected 0.5, 1.0, 1.5, 2.0, 3.0, 5.0, 7.0, 9.0, 12 and 24 hours after administration, which were then centrifugated respectively to obtain the plasma. The concentration of the drug in the plasma was determined by means of liquid chromatography/tandem mass spectrometer, and the concentration-time curve was obtained.

[4] = system: human breast cancer cell BT-474; assay: Inhibition of proliferation of tumor cell lines (MTT), BT-474; type: cell-based; settings: BT-474, MTT, 72 h
Method: (§2) A DMSO solvent control well and a blank well were set in the plate. […] The incubation was continued for 4 h, and 50 μL of triple-expansion solution (10% SDS-5% of isobutyl alcohol-0.01 mol/L of HCl) was added. The plate was placed in the incubator overnight. The OD value was measured by the microplate reader at wavelength of 570 nm.

[5] = system: human epidermatoid squamous cancer cell A431; assay: Inhibition of proliferation of tumor cell lines (MTT), A431; type: cell-based; settings: 72 h
Method: as §2

[6] = system: human ovarian cancer SKOV-3; assay: Anti-tumor effect on human ovarian cancer SKOV-3 transplanted to the BALB/cA nude rat; type: in vivo
Method: A tumor SKOV-3 in vigorous growth period was selected and incised into several bits of an even size of about 1.5 mm^3, which was inoculated subcutaneously to the right armpit of the BALB/cA nude rats using trocar under sterile condition. The diameters of the transplanted tumors were measured with a vernier caliper. The animals were grouped randomly when the tumors reached a size of 80-100 mm^3. The tested animals of the group receiving the compounds to be tested were administrated with the compounds by gavage through mouth once daily for 3 weeks continuously. The positive control drug MMC (Mitomycin) was administered by intravenous injection once on the first day with a dose of 5 mg/kg. The negative control group was administered with 0.5% CMC-Na (Carboxymethyl Cellulose Sodium) with a dose of 0.2 mL/per rat. The major axis (a) and the minor axis (b) of the tumors were measured twice every week and the rats were weighed at the same time. According to the formula V=ab^2/2, the tumor volume (mm^3) could be calculated, based on which the relative tumor volume (RTV) was determined (Formula: RTV=Vt/V0, wherein V0 represents the tumor volume measured at the grouping time (i.e. d0), and Vt represents the tumor volume measured each time). The relative tumor proliferation rate T/C (%) was chosen here to evaluate the anti-tumor activity, which can be calculated according to the following formula: T/C(%)=(TRTV/CRTV)×100%
TRTV: RTV of the group receiving the compounds to be tested; CRTV: RTV of negative control group

[7] = system: human epidermatoid squamous cancer A431; assay: Anti-tumor effect on human epidermatoid squamous cancer A431 transplanted to the BALB/cA nude rat; type: in vivo; settings: for Weight of animals (without tumor) / inhibition for tumor % / Weight of tumors x ± SD: 13 days; for Weight of tumors x ± SD: 23 days after inoculation
Method: A well-developed solid tumor A431 was selected and incised into several bits of an even size of 2-3 mm, with one bit being inoculated subcutaneously to the right armpit of each of the BALB/cA nude rats using trocar. 7 days after inoculation, the rats were grouped randomly and were administrated with the compounds by gavage through mouth for 13 days continuously. The major axis (a) and the minor axis (b) of the tumors were measured with a vernier caliper every 4 days. According to the formula V=ab^2/2, the tumor volume (mm^3) could be calculated. The tested animals were neck-off killed 23 days after the inoculation, and anatomized to obtain the tumors. The tumors were weighed and the inhibitory effect of the compounds to be tested was figured out.

[8] = Drug absorption in SD rat, intravenous injection (iv); type: in vivo; settings: 5 mg/kg
Method: as §1, with “collected 5 min, 15 min,” for “collected”, “0.5,” for “0.5, 1.0,”, “3.0, 4.0,” for “3.0,”, “7.0” for “7.0, 9.0, 12 and 24”

[9] = system: human epidermoid squamous cancer cells A431; settings: from PCT/CN2006/002786, result in words; cited from earlier work
[10] = system: human epidermoid squamous cancer cells A431; settings: from PCT/CN2006/002786, result in words; cited from earlier work; remark: listed apart in the source
[11] = system: human mammary cancer cells BT-474; settings: from PCT/CN2006/002786, result in words; cited from earlier work
[12] = molecular target: Erb-B2 (Homo sapiens, UniProt P04626); settings: in vitro; from PCT/CN2006/002786, result in words; cited from earlier work
Chain of Erb-B2 (P04626 23-1255, species assumed): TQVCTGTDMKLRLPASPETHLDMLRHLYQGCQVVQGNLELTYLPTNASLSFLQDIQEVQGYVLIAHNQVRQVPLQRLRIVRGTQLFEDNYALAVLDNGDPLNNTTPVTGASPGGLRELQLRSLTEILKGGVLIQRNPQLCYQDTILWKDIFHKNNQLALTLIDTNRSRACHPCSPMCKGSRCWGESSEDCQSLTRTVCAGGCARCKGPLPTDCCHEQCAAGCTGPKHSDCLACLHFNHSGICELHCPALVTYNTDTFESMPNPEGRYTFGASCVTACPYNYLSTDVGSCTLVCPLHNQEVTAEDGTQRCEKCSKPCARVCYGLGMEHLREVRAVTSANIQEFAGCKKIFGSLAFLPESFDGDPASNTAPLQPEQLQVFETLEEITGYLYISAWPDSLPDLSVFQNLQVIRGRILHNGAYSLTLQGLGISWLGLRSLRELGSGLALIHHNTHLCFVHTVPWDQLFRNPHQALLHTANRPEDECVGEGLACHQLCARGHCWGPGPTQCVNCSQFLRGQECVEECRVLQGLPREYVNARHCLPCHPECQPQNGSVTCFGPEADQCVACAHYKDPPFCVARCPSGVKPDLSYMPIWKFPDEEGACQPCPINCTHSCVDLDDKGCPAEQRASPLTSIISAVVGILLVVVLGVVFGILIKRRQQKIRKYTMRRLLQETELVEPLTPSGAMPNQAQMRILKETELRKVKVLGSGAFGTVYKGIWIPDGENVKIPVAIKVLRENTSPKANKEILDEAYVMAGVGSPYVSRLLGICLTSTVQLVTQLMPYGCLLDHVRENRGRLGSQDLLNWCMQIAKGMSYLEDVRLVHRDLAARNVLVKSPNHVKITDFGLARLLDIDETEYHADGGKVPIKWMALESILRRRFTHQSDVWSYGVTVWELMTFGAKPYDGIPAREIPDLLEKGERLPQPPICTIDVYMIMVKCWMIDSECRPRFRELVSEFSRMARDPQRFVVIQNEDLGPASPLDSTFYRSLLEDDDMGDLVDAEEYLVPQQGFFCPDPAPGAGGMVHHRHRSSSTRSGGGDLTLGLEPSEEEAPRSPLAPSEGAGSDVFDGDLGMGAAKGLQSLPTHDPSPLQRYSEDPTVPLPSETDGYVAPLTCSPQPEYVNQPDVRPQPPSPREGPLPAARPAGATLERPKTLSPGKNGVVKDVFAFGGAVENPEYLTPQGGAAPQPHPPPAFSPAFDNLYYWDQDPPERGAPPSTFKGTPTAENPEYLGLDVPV

[13] = Solubility test in water and in methanol at room temperature; type: physicochemical; settings: thermodynamic from solid
Method: According to the conventional method for determining the solubility, at the room temperature, a suitable amount of the compound to be tested was placed in 15 mL of water. Then the compound was dissolved by sufficient stir. The solution is placed at room temperature for 3 hours. Then 10 ml of the clear saturated supernatant was transferred into the weighing bottle with the pipette. The solvent was evaporated by heating, and the residue was dried and weighed to obtain the mass of the residue, which was the mass of the solute. After calculation, the solubility of the compound of formula (I) and the salts thereof in water can be obtained. The solubility of the compound to be tested in methanol was determined along the same lines.

[14] = SD rat, ig, dosage 21.68 (formula (I)), 23.42 (hydrochloride), 30 mg/kg (p-toluenesulfonate)
[15] = SD rat, revised by dosage, calculated by AUC0-t
[16] = 50 mg/kg ig once daily for 3 weeks
[17] = 100 mg/kg ig once daily for 3 weeks
[18] = 200 mg/kg ig once daily for 3 weeks
[19] = 5 mg/kg iv once on the first day, after 3 weeks

C=CC(=O)Nc1ccc2ncnc(Nc3ccc(OCc4cccc(F)c4)c(Cl)c3)c2c1.O=C(O)C(=O)O [Oxalate, Oxalate of N-{4-[3-chloro-4-(3-fluoro-benzyloxy)phenylamino]-quinazolin-6-yl}-acrylamide]
inhibitory activity of EGFR tyrosine kinases [1]: excellent inhibitory activity
food intake [2]: normal food intake
physical signs, appearance, behaviors, activities or shape of dejecta [2]: no abnormality

C=CC(=O)Nc1ccc2ncnc(Nc3ccc(OCc4cccc(F)c4)c(Cl)c3)c2c1.CS(=O)(=O)O [Methanesulfonate, Methanesulfonate of N-{4-[3-chloro-4-(3-fluoro-benzyloxy)phenylamino]-quinazolin-6-yl}-acrylamide]
inhibitory activity of EGFR tyrosine kinases [1]: excellent inhibitory activity
food intake [2]: normal food intake
physical signs, appearance, behaviors, activities or shape of dejecta [2]: no abnormality

C=CC(=O)Nc1ccc2ncnc(Nc3ccc(OCc4cccc(F)c4)c(Cl)c3)c2c1.Cc1ccc(S(=O)(=O)O)cc1 [p-Toluenesulfonate, p-Toluenesulfonate of N-{4-[3-chloro-4-(3-fluoro-benzyloxy)phenylamino]quinazolin-6-yl}-acrylamide]
inhibitory activity of EGFR tyrosine kinases [1]: excellent inhibitory activity
AUC0-t [3, 14]: 1235 ng·h/mL
Cmax [3, 14]: 333 ng/mL
T1/2 [3, 14]: 1.22 h
Tmax [3, 14]: 3.38 h
absolute bioavailability by ig [3, 15]: 11.07%
IC50 [4]: 420 nM
IC50 [5]: 730 nM
food intake [2]: normal food intake
physical signs, appearance, behaviors, activities or shape of dejecta [2]: no abnormality
RTV [6, 16]: 5.1 ± 1.7
T/C [6, 16]: 53.0%
Volume of tumor V21 [6, 16]: 421 ± 89 mm^3
RTV [6, 17]: 4.3 ± 1.3
T/C [6, 17]: 45.0%
Volume of tumor V21 [6, 17]: 345 ± 88 mm^3
RTV [6, 18]: 3.5 ± 0.8
T/C [6, 18]: 36.9%
Volume of tumor V21 [6, 18]: 303 ± 72 mm^3
tumor inhibitory effect (SKOV-3 xenograft) ([6]; result in words): conspicuous tumor inhibitory effect
Weight of animals (without tumor) ([7]; 25 mg/kg ig): 21.58 ± 2.18 g
inhibition for tumor % ([7]; 25 mg/kg ig): 29.99%
Weight of tumors x ± SD ([7]; 25 mg/kg ig): 0.79 ± 0.20 g
Weight of animals (without tumor) ([7]; 50 mg/kg ig): 22.05 ± 1.59 g
inhibition for tumor % ([7]; 50 mg/kg ig): 37.15%
Weight of tumors x ± SD ([7]; 50 mg/kg ig): 0.71 ± 0.20 g
Weight of animals (without tumor) ([7]; 100 mg/kg ig): 22.35 ± 1.92 g
inhibition for tumor % ([7]; 100 mg/kg ig): 48.65%
Weight of tumors x ± SD ([7]; 100 mg/kg ig): 0.58 ± 0.21 g
inhibitory effect on the tumors (A431 xenograft) ([7]; result in words): significant inhibitory effect
AUC0-t [8]: 1860 ng·h/mL
Cmax [8]: 1745 ng/mL
T1/2 [8]: 1.55 h
Tmax [8]: 4.98 min

Tartrate of N-{4-[3-chloro-4-(3-fluoro-benzyloxy)phenylamino]-quinazolin-6-yl}-acrylamide
inhibitory activity of EGFR tyrosine kinases [1]: excellent inhibitory activity
food intake [2]: normal food intake
physical signs, appearance, behaviors, activities or shape of dejecta [2]: no abnormality
weight and weight growth of the rats [2]: basically similar to the control group with no statistical difference

CO[C@@]12[C@H](COC(N)=O)C3=C(C(=O)C(C)=C(N)C3=O)N1C[C@@H]1N[C@@H]12 [MMC, Mitomycin, reference compound]
RTV [6, 19]: 3.1 ± 0.5
T/C [6, 19]: 32.0%
Volume of tumor V21 [6, 19]: 258 ± 77 mm^3

C=CC(=O)Nc1ccc2ncnc(Nc3ccc(OCc4cccc(F)c4)c(Cl)c3)c2c1 [Compound of formula (I), N-{4-[3-chloro-4-(3-fluoro-benzyloxy)phenylamino]quinazolin-6-yl}-acrylamide]
inhibitory activity of human epidermoid squamous cancer cells A431 [9]: relatively good inhibitory activity
anti-tumor effect on A431 transplanted to a nude rat [10]: conspicuous anti-tumor effect
inhibitory activity of human mammary cancer cells BT-474 [11]: relatively good inhibitory activity
half-life ([3]; male, SD, rat, plasma, po, 30 mg/kg): 1.81 h
AUC0-t ([3]; male, SD, rat, plasma, po, 30 mg/kg, read-out: AUC0-t): 106 ng·h/mL
Cmax ([3]; male, SD, rat, plasma, po, 30 mg/kg, read-out: Cmax): 32 ng/mL
Tmax ([3]; male, SD, rat, plasma, po, 30 mg/kg, read-out: Tmax): 0.75 h
bioavailability ([3]; male, plasma, po, 21.68 mg/kg, SD rat, revised by dosage, calculated by AUC0-t, read-out: absolute bioavailability by ig): 0.95%
inhibitory activity against Erb-B2 [12]: excellent inhibitory activity
solubility at 3 h ([13]; organic solvent or mixture, methanol, read-out: Solubility in methanol(/mL)): < 1000 µg/mL
solubility at 3 h ([13]; water, read-out: Solubility in water(/mL)): < 0.01 µg/mL

C=CC(=O)Nc1ccc2ncnc(Nc3ccc(OCc4cccc(F)c4)c(Cl)c3)c2c1.Cl [Hydrochloride, The hydrochloride of N-{4-[3-chloro-4-(3-fluoro-benzyloxy)phenyl-amino]-quinazolin-6-yl}-acrylamide]
inhibitory activity of EGFR tyrosine kinases [1]: excellent inhibitory activity
AUC0-t [3, 14]: 1038 ng·h/mL
Cmax [3, 14]: 289 ng/mL
T1/2 [3, 14]: 1.27 h
Tmax [3, 14]: 2.25 h
absolute bioavailability by ig [3, 15]: 9.30%
IC50 ([4]; listed as hydrochloride): 460 nM
IC50 ([5]; listed as hydrochloride): 840 nM
food intake [2]: normal food intake
physical signs, appearance, behaviors, activities or shape of dejecta [2]: no abnormality

Source: patent US8349854B2, “Salts of 4-aniline quinazoline derivative” (priority 2007, dated 2013)
